Measured values: patent publication US5314896A, “1,3-substituted cycloalkenes and cycloalkanes as central nervous system agents” (priority 1992, dated 1994)
Where two headings read alike, the source gives them in different places. One block for each molecule: values may come before it.

Legend:
[1] = tested on: Locomotor Activity in Mice; assay: Inhibition of locomotor activity in mice; format: in vivo; details: for ED50: Mus musculus
Method: (§1) The compounds of Formula I are valuable dopaminergic agents. […] Thus, the compounds of Formula I were tested for their ability to inhibit locomotor activity in mice and rats, a measure of antipsychotic activity, according to the assay described by J. R. McLean, et al, Pharmacology, Biochemistry and Behavior, Vol. 8, pages 97-99 (1978); for their ability to bind to dopamine receptors as measured by their inhibition of [^3 H]spiroperidol binding in a receptor assay described by D. Grigoriadis and P. Seeman, Journal of Neurochemistry, Vol. 44, pages 1925-1935 (1985); and for their ability to effect dopamine synthesis in rats according to the protocol described by J. R. Walters and R. H. Roth, Naunyn-Schmiedebero's Archives of Pharmacology, Vol. 296, pages 5-14 (1976). The above test methods are incorporated herein by reference. The data in the table show the dopaminergic activity of representative compounds of Formula I.

[2] = target: dopamine receptors; assay: Inhibition of [^3 H] spiroperidol binding
Method: as §1

[3] = tested on: Brain Dopamine Synthesis; assay: % effects on brain dopamine synthesis in rats; format: in vivo; details: Rattus norvegicus
Method: as §1

[4] = ip, read-out: Inhibition of Locomotor Activity in Mice ED50, mice, IP (Table 2)
[5] = ip, read-out: Inhibition of Locomotor Activity in Mice ED50, mice, IP (Table 1)
[6] = mice, IP (Table 1), read-out: Inhibition of Locomotor Activity in Mice ED50
[7] = ip, read-out: % Effects on Brain Dopamine Synthesis in Rats, rats, 10 mg/kg, IP (Table 1)

Molecule: C1=C(c2ccccc2)CCN(C2CCC=C(c3ccccc3)C2)C1 (racemic) [D, (±)-1,2,3,6-tetrahydro-4-phenyl-1-(3-phenyl)-3-cyclohexen-1-yl)pyridine, reference compound]
- ED50 [1, 4]: 30 mg/kg
- IC50 ([2]; Table 2): 9210 nM

Molecule: Fc1ccc(C2=CCCC(CN3CC=C(c4ccccc4)CC3)C2)cc1 (racemic) [Example 3, (±)-1-[[3-(4-Fluorophenyl)-3-cyclohexen-1-yl]methyl]-1,2,3,6-tetrahydro-4-phenylpyridine]
- ED50 [1, 5]: 4.2 mg/kg
- IC50 ([2]; Table 1): 90 nM

- IC50 ([2]; Table 1): 424 nM
Molecule: C1=C(c2ccccc2)CC(CN2CCN(c3ccccc3)CC2)CC1.Cl.Cl (racemic) [Example 22, (±)-1-phenyl-4-[(3-phenyl-3-cyclohexen-1-yl)methyl]-piperazine dihydrochloride]
- ED50 [1, 6]: 2.1 mg/kg

Molecule: C1=C(c2ccccc2)CCN(C[C@@H]2CCC=C(c3cccnc3)C2)C1.Cl [Example 12, (R)-3-[5-[(3,6-dihydro-4-phenyl-1(2H)-pyridinyl)methyl]-1-cyclohexen-1-yl]pyridine monohydrochloride]
- ED50 [1, 5]: 0.01 mg/kg
- change in vivo at 10 mg/kg [3, 7]: -85%
- IC50 ([2]; Table 1): 82 nM

Molecule: C1=C(c2cncnc2)CCC[C@H]1CN1CC=C(c2ccccc2)CC1.Cl.Cl [Example 14a, (R)-5-[3-[(3,6-dihydro-4-phenyl-1(2H)-pyridinyl)methyl]-1-cyclohexen-1-yl]pyrimidine dihydrochloride]
- ED50 [1, 5]: 0.07 mg/kg

Molecule: C1=C(c2ccccc2)CCN(CCC2CCC=C(c3ccccc3)C2)C1 (racemic) [Compound E, (±)-1,2,3,6-tetrahydro-4-phenyl-1-[2-(3-phenyl-3-cyclohexen-1-yl)ethyl]pyridine, reference compound]
- ED50 [1, 4]: 10.9 mg/kg

Molecule: COc1ccc(C2=CCC[C@@H](CN3CC=C(c4ccccc4)CC3)C2)cc1.Cl [Example 11, (R)-1,2,3,6-tetrahydro-1-[[3-(4-methoxyphenyl)-3-cyclohexen-1-yl]methyl]-4-phenylpyridine monohydrochloride]
- ED50 [1, 5]: 0.37 mg/kg
- change in vivo at 10 mg/kg [3, 7]: -47%
- IC50 ([2]; Table 1): 100 nM

Molecule: C1=C(c2ccccc2)CCN(C[C@@H]2CCC=C(c3cncnc3)C2)C1.Cl [Example 14, (R)-5-[5-[(3,6-dihydro-4-phenyl-1(2H)-pyridinyl)methyl]-1-cyclohexen-1-yl]pyrimidine monohydrochloride]
- ED50 [1, 5]: 0.4 mg/kg
- IC50 ([2]; Table 1): 438 nM

- IC50 ([2]; Table 2): 11200 nM
Molecule: C1=C(c2ccccc2)CCC(CN2CCN(c3ccccn3)CC2)C1 (racemic) [Compound G, (±)-1-[(4-phenyl-3-cyclohexen-1-yl)methyl]-4-(2-pyridinyl)piperazine, reference compound]
- ED50 ([1]; mice, IP (Table 2), read-out: Inhibition of Locomotor Activity in Mice ED50): 25.9 mg/kg

Molecule: C1=C(c2ccccc2)CCN(C[C@@H]2CCC=C(c3cccs3)C2)C1.Cl [Example 10, (R)-1,2,3,6-tetrahydro-4-phenyl-1-[[3-(2-thienyl)-3-cyclohexen-1-yl]methyl]pyridine monohydrochloride]
- ED50 [1, 5]: 1.6 mg/kg
- change in vivo at 10 mg/kg [3, 7]: -54%
- IC50 ([2]; Table 1): 79 nM

Molecule: Fc1ccc(C2=CC(CN3CC=C(c4ccccc4)CC3)CCC2)cc1 (racemic) [Example 3a, (±)-1-[[3-(4-Fluorophenyl)-2-cyclohexen-1-yl]methyl]-1,2,3,6-tetrahydro-4-phenylpyridine]
- ED50 [1, 5]: 2.9 mg/kg
- change in vivo at 10 mg/kg [3, 7]: -41%
- IC50 ([2]; Table 1): 1070 nM

Molecule: CN(C)c1ccc(C2=C[C@H](CN3CC=C(c4ccccc4)CC3)CCC2)cc1 [Example 16a, (R)-4-[3-[(3,6-dihydro-4-phenyl-1(2H)-pyridinyl)methyl]-1-cyclohexen-1-yl]-N,N-dimethylbenzeneamine]
- ED50 [1, 5]: 0.7 mg/kg
- IC50 ([2]; Table 1): 660 nM

Molecule: C1=C(c2ccccc2)CCN(C[C@@H]2CCC[C@@H](c3ccccc3)C2)C1.Cl [Example 20a, (1R-trans) 1,2,3,6-tetrahydro-4-phenyl-1-[(3-phenylcyclohexyl)methyl]pyridine monohydrochloride]
- ED50 [1, 5]: 0.5 mg/kg
- IC50 ([2]; Table 1): 874 nM

Molecule: Clc1ccc(C2=C[C@H](CN3CC=C(c4ccccc4)CC3)CCC2)cc1 [Example 7a, (R)-1-[[3-(4-chlorophenyl)-2-cyclohexen-1-yl]methyl]-1,2,3,6-tetrahydro-4-phenylpyridine]
- ED50 [1, 5]: 7.5 mg/kg
- IC50 ([2]; Table 1): 2320 nM

Molecule: Cl.Clc1ccc(C2=CCC[C@@H](CN3CC=C(c4ccccc4)CC3)C2)cc1 [Example 7, (R)-1-[[3-(4-chlorophenyl)-3-cyclohexen-1-yl]methyl]-1,2,3,6-tetrahydro-4-phenylpyridine monohydrochloride]
- ED50 [1, 5]: 4.4 mg/kg
- change in vivo at 10 mg/kg [3, 7]: -18%

Molecule: C1=C(c2ccccc2)CCN(C[C@H]2C=C(c3cccs3)CCC2)C1.Cl [Example 10a, (R)-1,2,3,6-tetrahydro-4-phenyl-1-[[3-(2-thienyl)-2-cyclohexen-1-yl]methyl]pyridine monohydrochloride]
- ED50 [1, 5]: 1.5 mg/kg
- change in vivo at 10 mg/kg [3, 7]: -58%
- IC50 ([2]; Table 1): 110 nM

Molecule: C1=C(c2ccsc2)CCC[C@H]1CN1CC=C(c2ccccc2)CC1 [Example 15, (R)-1,2,3,6-tetrahydro-4-phenyl-1-[[3-(3-thienyl)-2-cyclohexen-1-yl]methyl]pyridine]
- ED50 [1, 5]: 1.3 mg/kg
- IC50 ([2]; Table 1): 251 nM

Molecule: C1=C(c2ccccc2)CCN(CC2CCC=C(c3c[nH]c4ccccc34)C2)C1 (racemic) [Example 26, (±)-3-[5-[(3,6-dihydro-4-phenyl-1(2H)-pyridinyl)methyl]-1-cyclohexen-1-yl]-1H-indole]
- ED50 [1, 5]: 2 mg/kg
- change in vivo at 10 mg/kg [3, 7]: -23%
- IC50 ([2]; Table 1): 288 nM

Molecule: O=C(N[C@H]1CCC[C@@H](CN2CC=C(c3ccccc3)CC2)C1)c1ccccc1 [Example 19, (1S-cis)-N-[3-[(3,6-dihydro-4-phenyl-1(2H)-pyridinyl)methyl]cyclohexyl]benzamide]
- ED50 [1, 5]: 0.15 mg/kg
- change in vivo at 10 mg/kg [3, 7]: -95%
- IC50 ([2]; Table 1): 34 nM

Molecule: Cc1ccc(C2=CCC[C@@H](CN3CC=C(c4ccccc4)CC3)C2)cc1 [Example 9, (R)-1,2,3,6-tetrahydro-1-[[3-(4-methylphenyl)-3-cyclohexen-1-yl]methyl]-4-phenylpyridine]
- ED50 [1, 5]: 0.8 mg/kg
- change in vivo at 10 mg/kg [3, 7]: -42%
- IC50 ([2]; Table 1): 184 nM

- IC50 ([2]; Table 1): 76 nM
Molecule: C1=C(c2ccccc2)C[C@H](CN2CCN(c3ccccn3)CC2)CC1 [Example 21, (R)-1-[(3-Phenyl-3-cyclohexen-1-yl)methyl]-4-(2-pyridinyl)piperazine]
- ED50 [1, 6]: 9.9 mg/kg
- change in vivo at 10 mg/kg ([3]; rats, 10 mg/kg, IP (Table 1), read-out: % Effects on Brain Dopamine Synthesis in Rats): -27%

Molecule: C1=C(c2ccccc2)CCN(C[C@@H]2CCC=C(c3ccc4c(c3)OCO4)C2)C1.Cl [Example 18, (R)-1-[[3-(1,3-benzodioxol-5-yl)-3-cyclohexen-1-yl]methyl]-1,2,3,6-tetrahydro-4-phenylpyridine monohydrochloride]
- ED50 [1, 5]: 0.8 mg/kg
- IC50 ([2]; Table 1): 432 nM

Molecule: C1=C(c2ccccc2)CCC(CCN2CC=C(c3ccccc3)CC2)C1 (racemic) [Compound C, (±)-1,2,3,6-tetrahydro-4-phenyl-1-[2-(4-phenyl-3-cyclohexen-1-yl)ethyl]pyridine, reference compound]
- ED50 [1, 4]: 5.8 mg/kg
- IC50 ([2]; Table 2): 8020 nM

Molecule: C1=C(c2ccccc2)CC(CN2CC=C(c3cccs3)CC2)CC1.Cl (racemic) [Example 24, (±)-1,2,3,6-tetrahydro-1-[(3-phenyl-3-cyclohexen-1-yl)methyl]-4-(2-thienyl)pyridine monohydrochloride]
- ED50 [1, 5]: 1.5 mg/kg
- IC50 ([2]; Table 1): 170 nM

Molecule: (R)-1,2,3,6-tetrahydro-1-[[3-(2-methylphenyl)-2-cyclohexen-1-yl]methyl]-4-phenylpyridine monohydrochloride compound with (R)-1,2,3,6-tetrahydro-1-[[3-(2-methylphenyl)-3-cyclohexen-1-yl]methyl]-4-phenylpyridine [Example 13]
- Inhibition of Locomotor Activity in Mice ED50 ([1]; mice, IP (Table 1)): 2.3 mg/kg

- IC50 ([2]; Table 1): 354 nM
Molecule: C1=C(c2ccccc2)CC(CN2CCN(c3ncccn3)CC2)CC1 (racemic) [Example 23, (±)-2-[4-[[3-phenyl-3-cyclohexen-1-yl)methyl]-1-piperazinyl]pyrimidine]
- ED50 [1, 6]: 8.5 mg/kg

Molecule: C1=C(c2ccccc2)CCN(CC2C=C(c3cccs3)CCC2)C1 (racemic) [Example 2a, (±)-1,2,3,6-Tetrahydro-4-phenyl-1-[[3-(2-thienyl)-2-cyclohexen-1-yl]methyl]pyridine]
- ED50 [1, 5]: 2.3 mg/kg
- IC50 ([2]; Table 1): 400 nM

Molecule: C1=C(c2cnc3ccccc3c2)CCC[C@H]1CN1CC=C(c2ccccc2)CC1 [Example 17a, (R)-3-[3-[(3,6-dihydro-4-phenyl-1(2H)-pyridinyl)methyl]-1-cyclohexen-1-yl]quinoline]
- ED50 [1, 5]: 1.7 mg/kg
- IC50 ([2]; Table 1): 1110 nM

Molecule: C1=C(c2ccccc2)CCC(CN2CC=C(c3ccccc3)CC2)C1 (racemic) [B, (±)-1,2,3,6-tetrahydro-4-phenyl-1-[(4-phenyl-3-cyclohexen-1-yl)methyl]pyridine, reference compound]
- ED50 [1, 4]: 13.2 mg/kg
- IC50 ([2]; Table 2): 1000 nM

Molecule: C1=C(c2ccccc2)CCC(N2CC=C(c3ccccc3)CC2)C1 (racemic) [A, (±)-1,2,3,6-tetrahydro-4-phenyl-1-(4-phenyl-3-cyclohexen-1-yl)pyridine, reference compound]
- ED50 [1, 4]: 12.9 mg/kg
- IC50 ([2]; Table 2): 1080 nM
